Measurements: EPA's ToxValDB 9.5 (doi:10.2903/j.efsa.2018.5146)
In brackets after ≈: the same amount, converted by molar mass.

What was measured:
[1] = chronic; duration: 133 days; other
[2] = test system: Apis mellifera; conditions: acute, mortality
[3] = test system: Colinus virginianus
[4] = test system: Folsomia candida; conditions: chronic/long-term; reproduction
[5] = test system: Mus musculus; conditions: organ weight
[6] = test system: Oncorhynchus mykiss; conditions: acute; duration: 96 hours; mortality
[7] = test system: Oryctolagus sp.
[8] = test system: Rattus norvegicus; conditions: acute; oral; mortality
[9] = test system: Tagia sp.; conditions: chronic/long-term; reproduction
[10] = test system: Aphidius rhopalosiphi; assay: LR50; higher = less toxic; conditions: acute; mortality

Q: For `COc1ccnc(C(=O)N[C@H]2COC(=O)[C@H](Cc3ccccc3)[C@@H](OC(=O)C(C)C)[C@H](C)OC2=O)c1OCOC(=O)C(C)C` [Fenpicoxamid], which NOEC [1] is on record?
A: 0.0001 mg/L

Q: And the LD50 ([2]; dermal)?
A: > 202 µg/piece

Q: What about the LD50 ([2]; oral, unspecified) of the same compound?
A: > 303 µg/piece

Q: What about the LD50 ([3]; acute, oral, mortality) of the same compound?
A: > 2000 mg/kg-day

Q: What about the NOEC ([3]; reproduction developmental) of the same compound?
A: 12.1 mg/kg-day

Q: What about the NOEC [4] of the same compound?
A: 3.97 mg/kg

Q: What about the NOAEL ([5]; chronic, duration: 18 months) of the same compound?
A: 5.27 mg/kg-day

Q: What about the NOAEL ([5]; subchronic, duration: 90 days, oral) of the same compound?
A: 39.6 mg/kg-day

Q: What about the LC50 [6] of the same compound?
A: 1.1 µg/mL (≈ 1.79 µM)

Q: What about the NOAEL ([7]; chronic, New Zealand, no effects) of the same compound?
A: 495 mg/kg-day

Q: And the NOAEL ([7]; reproduction developmental, reproduction)?
A: 177 mg/kg-day

Q: What about the LD50 [8] of the same compound?
A: > 2000 mg/kg-day

Q: What about the NOEC [9] of the same compound?
A: 9.93 mg/kg

Q: What about the LR50 [10] of the same compound?
A: > 129 g/ha
